Test results published in patent publication US9539223B2, “Methods for treating bacterial infections” (Neoculi Pty Ltd., priority 2013, dated 2017).
Several values for one entry are separate records, joined by “and”; a condition that tells them apart may be missing. Identical values can stand only once.

How the values were obtained:
S. pneumoniae strain D39 [1] = assay: MBC time kill studies (relative MBC at time points); format: cell-based, Streptococcus pneumoniae
Excerpt: MBC kill kinetics assays involved the preparation of three 96-well microtitre trays.

[2] = test system: Staphylococcus pseudintermedius; assay: MBC testing (CLSI), S. pseudintermedius isolates; format: cell-based
Experimental: After the MICs were determined, the minimum bactericidal concentrations were performed to determine if these compounds are bacteriostatic or bacteriocidal.

S. aureus ATCC 49775 = assay: Time-kill assays; format: cell-based, Staphylococcus aureus
Experimental: Bactericidal activity in macrodilution assays was identified as a 3-log10 decrease from the initial inoculum size. Bacteria were cultured overnight at 37° C. on SBA. Colonies were suspended in broth and the turbidity was adjusted to a 0.5 McFarland standard to obtain a bacterial suspension of ˜10^5-CFU/ml. Bacterial suspensions were incubated at 37° C. with shaking. Aliquots were removed at 0-, 1-, 2-, 4-, 8-, 12-, and 24-h after antimicrobial addition, diluted, plated onto SBA and incubated for 48-h at 37° C. for viable count determination. Turbidimetric growth curves for S. aureus were obtained for Microtiter plate assays by monitoring optical density changes using a Bio-Rad Benchmark Plus microplate spectrophotometer at 600 nm. Optical densities were measured at 0-, 1-, 2-, 4-, 8-, 12, and 24-h after antimicrobial addition.

[3] = test system: Staphylococcus spp. Strain MK1; assay: Checkerboard synergy study, Staphylococcus spp. MK1; format: cell-based
Experimental: Firstly, the MIC of each antibiotic alone was determined in accordance to CLSI standard guidelines.
According to the checkerboard guidelines, Synergy (S) was defined as an FICI<0.5. No effect (NE) was defined as 0.5<FICI<4. Antagonism (A) was defined as a 4<FICI.

[4] = test system: RNA synthesis in S. aureus ATCC 29213; assay: RNA synthesis, [3H] uridine incorporation; format: cell-based, Staphylococcus aureus; conditions: 0.25 to 8-fold the MIC
Experimental: Cells were grown at 35° C. overnight on Trypticase Soy agar. A colony from the plate was used to inoculate 10 ml of Mueller Hinton broth II (MHBII), and the culture was grown to early exponential growth phase (OD600=0.2 to 0.3) while incubating in a shaker at 35° C. and 200 rpm.
When cells reached early exponential phase, 100 μl of culture was added to triplicate wells containing various concentrations of test compound or control antibiotics (5 μl) at 20× the final concentration in 100% DMSO. A 5% DMSO treated culture served as the “no drug” control for all experiments. Cells were added in MHBII at 105% to account for the volume of drug added to each reaction or in M9 minimal medium for protein synthesis reactions. Following 15 min incubation at room temperature, either [3H] thymidine (DNA synthesis), [3H] uridine (RNA synthesis) or [3H] leucine (protein synthesis) was added at 0.5-1.0 μCi per reaction, depending on the experiment. Reactions were allowed to proceed at room temperature for 15-30 min and then stopped by adding 12 μl of cold 5% trichloroacetic acid (TCA) or 5% TCA/2% casamino acids (protein synthesis only). […] After washing three times with 5 ml of cold 5% TCA, the filters were rinsed two times with 5 ml 100% ethanol, allowed to dry, and then counted using a Beckman LS3801 liquid scintillation counter.

S. pneumoniae strain D39 [5] = assay: Macro-broth dilution time kill studies; format: cell-based, Streptococcus pneumoniae
Experimental: Bacterial suspensions and working antibiotic stocks were prepared as described above. [For preparing macro-broth dilutions, 20 ml tubes were filled each with 9 mls of 4% LHB:CAMHB. 9 mls of a working antimicrobial stock was diluted 1:2 when added to one of the tubes, and then serial diluted down from a high to low concentration of antimicrobial. 1 ml of S. pneumoniae bacterial suspension was added to the appropriate tubes, including the positive control. […] At every 2-3 hrs during the first 12 hrs of growth and then at 24 hrs and 48 hrs, 50 μL of each bacterial suspension was spread plated onto HBA and incubated at 37° C. with 5% CO2 for 16-24 hrs.]
Cultures were incubated at 37° C. in 5% CO2 with gentle manual tilting every 10 mins for the first 12 hrs. Viable counts from 50 μL aliquots of each concentration were read following incubation at 37° C. in 5% CO2 for 24 hrs. The pH of each sample was measured at specific time points using pH indicator strips. Confluent growth was defined when more than 1000 colonies were counted per plate. A bactericidal effect was defined as a 3-log 10-unit reduction (99.9%) of the original cell suspension determined at 24 hrs for each concentration.

[6] = Visual analysis of solubility in diluents and media; format: physicochemical
S. aureus KC01 = assay: Kill kinetics assay, S. aureus KC01; format: cell-based, Staphylococcus aureus
Experimental: S. aureus KC01 and E. faecalis USA01, not determined to be MRSA or VRE, respectively, were grown overnight on Columbia SBA at 37° C. A few colonies of bacteria were then suspended in CAMHB (cation-adjusted Mueller Hinton broth) and adjusted to OD600 of 0.08 to 0.10. The bacterial suspension was diluted 1:10. […] The tubes were incubated at 37° C., with constant shaking. In order to determine the number of viable bacteria present at various time points, a 100 μL aliquot was removed from each tube and diluted. Then, 100 μL of each dilution were spread onto colony count agar, in duplicate, and incubated for 48 h at 37° C. After 24 h the numbers of colonies present on each plate were counted and therefore the number of viable bacteria present in the original suspension enumerated. Plates were re-checked after 48 hours.

Q: Which results are given for `N=C(N/N=C/c1ccc(Cl)cc1)N/N=C/c1ccc(Cl)cc1` [NCL812, 1,2-bis[(E)-(4-chlorophenyl)methylideneamino]guanidine]?
A: consistent bactericidal effect elicited after (S. pneumoniae strain D39 [1]; from initial exposure, relative MBC over 48 hr): 6 h; decrease in MBC (S. pneumoniae strain D39 [1]; within 5 hrs): ~3 fold; activity based on minimal bactericidal concentrations (MBC) [2]: bactericidal; growth in microdilution assay (S. aureus ATCC 49775; 1× and 4× the MIC, up to 24-h): no visible bacterial growth; remained bactericidal until (S. aureus ATCC 49775; 10-ml macrodilution, 1× and 4× the MIC, after antimicrobial addition): 8 to 12 h; bacterial regrowth observed at (S. aureus ATCC 49775; after antimicrobial addition): 12 h; susceptibility of test bacteria after time-kill exposure (S. aureus ATCC 49775; following harvesting, washing and MIC testing): remained susceptible; MIC ([3]; read-out: NCL812 MIC Alone, Staphylococcus spp. Strain MK1): 2 µg/mL; NCL812 MIC With Antibiotic ([3]; with Penicillin G): 2 µg/mL; NCL812 MIC With Antibiotic ([3]; with Sulfamethoxazole): 1 µg/mL and 2 µg/mL; inhibition of RNA synthesis [4]: very similar to the DNA synthesis study; growth (S. pneumoniae strain D39 [5]; 2 μg/ml NCL812): Consistent confluent growth; appeared to be inactivated at (S. pneumoniae strain D39 [5]; 4 μg/ml and 8 μg/ml, post-exposure): 11 h; time to eliminating bacterial growth (S. pneumoniae strain D39 [5]; between 16 μg/ml and 64 μg/ml NCL812): ≤ 8 h; solubility ([6]; DMSO): soluble; appearance when dissolved ([6]; cation-adjusted Mueller-Hinton II broth (CAMHB)): cloudy solution; visual solubility ([6]; diluent CAMHB): Turbid; visual solubility ([6]; diluent DMSO): Transparent; visual solubility ([6]; diluent PBS): Precipitate; visual solubility ([6]; media 4% LHB:CAMHB): Turbid; visual solubility ([6]; media 10% horse serum-supplemented broth): Precipitate; reduction in bacterial numbers from initial numbers (S. aureus KC01; 2 h time point): ≥ 2.5 log10; reduction in bacterial numbers in comparison to the control (S. aureus KC01; 2 h time point): > 3 log10; reduction in bacterial numbers (S. aureus KC01; 6 h incubation): ≥ 2 log10; numbers of bacteria compared to the control (S. aureus KC01; after 24 h): not significantly different to the control
